This is an account of results in patent US7252926B2, “Planographic printing plate material and preparing process of planographic printing plate” (Konica Minolta Medical & Graphic, Inc., priority 2003, dated 2007).

The series is described as follows: Solubility of the dye in methyl ethyl ketone (MEK). In kind it is physicochemical. Particulars: dye dissolved in methyl ethyl ketone; wt % at 25° C. How it is done:
An anionic dye of the present invention dissolving in an amount of not less than 1% indicates an anionic dye dissolving in methyl ethyl ketone not less than 1 wt % at 25° C. More preferably, an anionic dye dissolving in methyl ethyl ketone in an amount of not less than 1.5 wt %. And still more preferably, it is not less than 2 wt %, and specifically preferably, it is not less than 2.5 wt %.

As for `CCCCN1C(=O)C(=C2C=C(C)c3ccc(N(CC)CC)cc3O2)C(=O)N(CCCC)C1=S` [Dye1 (nonion)], the “MEK Solubility (%)” value is reported as 2%.
For `Cn1c(-c2ccccc2)c(/C=C/C2=[N+](C)c3cc(Cl)ccc3C2(C)C)c2ccccc21` [Dye2 (cation)], the “MEK Solubility (%)” value was determined as 1%.
